This test has as its target T1, streptavidin-coated paramagnetic microparticle (Streptomyces avidinii, UniProt P22629).
T1 construct: purchased Advanced Magnetics, Cambridge, MA
Description: Magnetically assisted avidin-biotin binding assay (competitive inhibition, balance readout). Conditions: free biotin concentration 125 nanograms/milliliter (80 µl assayed); 12 milligrams at 0 nanograms/milliliter; Figure 6.

Structures are written as SMILES.

T1 sequence (P22629 25-183): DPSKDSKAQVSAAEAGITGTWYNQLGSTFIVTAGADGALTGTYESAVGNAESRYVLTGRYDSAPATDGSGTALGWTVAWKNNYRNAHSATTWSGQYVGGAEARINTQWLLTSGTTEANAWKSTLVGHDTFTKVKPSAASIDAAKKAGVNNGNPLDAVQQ
Description: The following reagents and samples were used in a binding assay:
The magnetically-labeled reagent was a streptavidin-coated paramagnetic microparticle (Advanced Magnetics, Cambridge, MA; average one micron in diameter, with 5x10^8 particles per mg, supplied as a 5 mg/ml suspension).
Incubation was continued at 37° C for an additional 45 minutes. The wells were then emptied and washed with PBS using a wash bottle.
The magnetically-labeled reagent was first combined with the test sample, thereby forming a reaction mixture which was incubated for one hour at 37° C. […] The unbound magnetically-labeled reagent was removed from the reaction mixture by means of magnetic attraction.

Consider `O=C(O)CCCC[C@@H]1SC[C@@H]2NC(=O)N[C@@H]21` [biotin], for which the “force change detected by the balance means” value was “zero”.

(Values after patent publication EP0631668B1, “DETERMINATION OF BINDING AFFINITY USING MAGNETICALLY-LABELED BINDING MEMBERS” (ABBOTT LABORATORIES, priority 1992, dated 1993).)
